# Several values for one entry are separate records, joined by “and”; a condition that tells them apart may be missing. Identical values can stand only once. Marks after values point to notes of the source that are not given here. Numbered stars: 1 amine (or outer) side, 2 acyl side, 3 side chain; on linkers, the order of the positions; unused ones are H or OH. Square brackets hold non-standard residues; d marks the D form. Side chains are listed from the residue outwards. Peptide text beside a SMILES is read from it. * marks the point of attachment. Ethylenediamine = C(CN[*:2])N[*:1]; Hyp = O=C(O)[C@@H]1C[C@@H](O)CN1; Phg = N[C@H](C(=O)O)c1ccccc1; CO = O=C([*:1])[*:2]; Bn = c1ccc(C*)cc1
# B1: IGFBP-1: insulin-like growth factor binding protein, inhibitor of IGF-I action (protein, UniProt P08833 26-259, looked up)
# Insulin-like growth …: APWQCAPCSAEKLALCPPVSASCSEVTRSAGCGCCPMCALPLGAACGVATARCARGLSCRALPGEQQPLHALTRGQGACVQESDASAPHAAEAGSPESPESTEITEEELLDNFHLMAPSEEDHSILWDAISTYDGSKALHVTNIKKWKEPCRIELYRVVESLAKAQETSGEEISKFYLPNCNKNGFYHSRQCETSMDGEAGLCWCVYPWNGKRIPGSPEIRGDPNCQIYFNVQN
# B2: bGH: growth hormone (bGH) given to GH deficient mice by Alzet pump (protein, UniProt P01246 27-217, looked up)
# Somatotropin: AFPAMSLSGLFANAVLRAQHLHQLAADTFKEFERTYIPEGQRYSIQNTQVAFCFSETIPAPTGKNEAQQKSDLELLRISLLLIQSWLGPLQFLSRVFTNSLVFGTSDRVYEKLKDLEEGILALMRELEDGTPRAGQILKQTYDKFDTNMRSDDALLKNYGLLSCFRKDLHKTETYLRVMKCRRFGEASCAF
# Columns and labels:
# [1] = system: prostate of estradiol-treated male Wistar rats; test: Estradiol-treated male Wistar rat model of BPH; format: in vivo; details: for mean gland size: difference not significant
# Source text: To evaluate further the efficacy of somatostatin 14 (SS-14) in the treatment of BPH and related urinary tract obstruction, the present inventors used an animal model system in which prostate hyperplasia, together with prostatitis is induced by administration of estradiol to male Wistar rats. The estradiol-treated Wistar rat animal model system was originally described by Robinette (1988, The Prostate 12:271-286; the content of which is incorporated herein in its entirety) as offering an animal model of the inflammation and fibromuscular growth observed in human BPH. Robinette also described the estradiol-treated Wistar rat animal model system as useful for identifying factors and/or xenobiotics that can inhibit or potentially reverse progression of prostatic fibromuscular proliferation. Wilson et al. (Exp Mol Pathol. 2004; 77:7-17; the content of which is incorporated herein in its entirety) also presented guidance pertaining to the estradiol-treated Wistar rat animal model system of Robinette, offering that chronic inflammation induced in the lateral prostate by estrogen treatment is accompanied later by fibromuscular proliferation, which correlates with the prevalence of chronic inflammation in BPH in men. To assay the therapeutic benefit of IGF-I inhibitors in an animal model system, the present inventors utilized the animal model system of Robinette (supra), as modified in accordance with standard methodology as set forth herein.
# Three month old Wistar rats were treated for 2 weeks with 1-cm long 0.078 i.d.×0.125 o.d. Silastic tubings filled with estradiol (E2). Another group of estradiol treated animals was also given SS-14 via Alzet pump implanted into the subcutaneous fat of the back, at a dosage of 15 μg/kg/hour. At the end of the treatment period animals were sacrificed and prostates removed en bloc. A total of four animals were analyzed per group.
# Prior to fixing and embedding, prostates were weighed. Bladder and coagulating glands were removed and the remaining tissues were embedded with urethral opening down. Blocks were then sectioned at 150 μm intervals.
# The effect on total area of prostate occupied by glands was also assessed. To determine whether SS-14 would have an inhibitory effect on the glandular component of the prostate, the area of the organ occupied by glands in transverse sections, including the urethra and cut at the level at which the width of the prostate was maximal, was measured. Gland area is expressed as it relates to the total area of the organ in transverse sections.
# The effect of SS-14 on the Fibromuscular Compartment surrounding the Urethra was also evaluated. To determine whether SS-14 reduced the fibromuscular component of the urethra, tissue sections were immunostained for smooth muscle α actin (αSMA). Each prostate was cut at 5 different levels, with 150 microns between each set of sections. The results of αSMA staining are shown in the photomicrographs depicted in FIG. 8; the whole urethra is indicated by circles and the surrounding fibromuscular layer by arrows.
# [2] = system: patients suffering from acromegaly; details: acromegalic patients, 1 year, cited from earlier work
# mammary gland = details: cited from earlier work
# [3] = PQ401 or SS14 treatment of intact 28 day old male mice: body weight; format: in vivo
# Method: (§1) In a first experimental approach, the effect of treatment of intact 28 day old male mice with vehicle or PQ401 (a small molecule IGF-I receptor specific inhibitor) or somatostatin-14 (SS14; a native somatostatin) was evaluated. PQ401 and SS14 inhibit IGF-I action. For these experiments, N=5 mice per group. The results of these experiments are presented below in Tables 7-10: […]
# [4] = system: prostate of intact 28 day old male mice; test: PQ401 or SS14 treatment of intact 28 day old male mice: prostate; format: in vivo
# Method: To examine further the effect of various compounds on glandular and fibromuscular development of the prostate, somatostatin-14 (SS14, a native somatostatin) and an exemplary small molecule IGF-I receptor inhibitor PQ401 were assessed in a variety of animal models.
# as §1
# [5] = system: prostate of intact wild-type male mice; test: IGFBP-1 effect on prostate development in 4-wk-old intact wild-type male mice; format: in vivo
# Method: FIG. 7 depicts the effect of IGFBP-1 treatment on prostate structures in intact 28 day old male mice. After 7 d of treatment with IGFBP-1 or vehicle, prostate development in both fibromuscular and glandular compartments was analyzed. Effects on fibromuscular development (A), epithelial development (B), lumen size (C), total prostate area (D), and prostate weight (E) are shown. Effects of IGFBP-1 (compared with control) on cell division and programmed cell death are shown in representative photomicrographs (F) showing the effect of IGFBP-1 (lower row) on cell division (left) and apoptosis (right) compared with control animals (top row) Arrows point to Ki67 or TUNEL staining in stroma, and arrows point to those effects in glands. Magnification, 400×. Effects of Ki67 staining (G) for cell division (left) and effects on programmed cell death by TUNEL (right). WT, Wild type.
# Eugonadal intact mice. The effect of treatment with IGH3P-1 on prostate development in 4-wk-old intact wild-type male mice was also studied. When compared with saline-treated control animals, IGFBP-1 inhibited all fibromuscular development, epithelial development, lumen size, prostate area, and prostate weight (FIG. 7, A-E). IGFBP-1 inhibited cell division in the epithelial compartment, and increased apoptosis in both fibromuscular and epithelial compartments (FIGS. 7, F and G).
# [6] = system: prostate of IGF-I^(−/−) null male mice; test: Restoration of prostate development in IGF-I(-/-) null male mice; format: in vivo
# Source text: That IGF-I was also found to be essential for full prostate development was shown in a series of experiments employing IGF-I^(−/−) null male mice.
# [7] = system: prostate of Lit/Lit dwarf animals; test: bGH restoration of impaired prostate development in Lit/Lit dwarf animals; format: in vivo; details: Lit/Lit dwarf mice
# Method: These include transgenic mice overexpressing a GH antagonist (that binds to and inactivates GH receptors making the animals functionally deficient in GH), growth hormone releasing factor receptor (GHRH-R^−/−) knockout mice (Lit/Lit), and Ames (df/df) mice (Prop 1 Deficiency). Deficient prostate development in GH inhibitor overexpression animals was previously reported (see Ruan et al, Endocrinology 140:1984-1989, 1999). Analysis of development was determined by dissecting away the periprostatic fat and teasing the glandular structures from the connective tissue in a solution containing collagenase so that the entire glandular tree could be photographed for later structural analysis. Much the same as in the mice overexpressing the mutant growth hormone, the other GH deficient mice had significant impairment of prostate development (p<0.0002) including a reduction in the number of terminal duct tips (TDTs), the area of the prostate gland, the number of quaternary branches and the number of branch points (TABLE 3). Any differences in these GH deficient mice may in part be due to the fact that the different strains were not analyzed at exactly the same age (Lit/Lit 50 days old, Ames 47 days old and bGH transgenic 44 days of age). The n was also different which may have led to greater significance in the Lit/Lit mice.
# The fact that GH treatment was capable of restoring impaired prostate development in GH deficient mice was shown in an experiment on Lit/Lit dwarf animals. Groups of animals were treated with either bGH (100 μg over 7 days by Alzet pump) or vehicle. The prostates were then removed and examined as described above. Treatment with bGH increased the number of TDTs from a mean of 48 (controls) to 61 (treated) p=0.011, the area of the gland from 0.71 cm^2 to 1.12 (NS), quaternary branching from 35 to 44 (p<0.01) and branch points from 37 to 46 (p=0.011).
# IGF-I = IGF-I by RIA in homogenates of prostate glands after bGH; format: in vivo; details: 87 day old male mice, bGH 200 μg daily for 4 days; untreated 223
# Method: IGF-I, as measured by RIA, was detected in homogenates of prostate glands from 87 day old male mice (223 ng/5 prostates). When bGH (200 μg daily for 4 days) was administered IGF-I rose to 418-526 ng/5 prostates. Serum IGF-I was 494 ng/ml in normal male mice. The IGF-I in prostate was likely produced there because bGH increases IGF-I mRNA in prostate.
# [8] = system: prostate of castrated Ames dwarf mice; test: IGFBP-1 inhibition of GH-induced prostate development in castrated Ames dwarf mice; format: in vivo; details: 10-wk-old castrated Ames dwarf mice, 7 d
# Method: To determine whether IGF-I inhibition could impair prostate development induced by GH-stimulated IGF-I and normal development in eugonadal animals, the effect of IGFBP-1 was tested in the following two models.
# Ames dwarf mice have impaired prostate development because they are deficient in GH. They are also deficient in prolactin, TSH, and gonadotrophins (Andersen et al., 1995, Dev Biol 172:495-503; the entire content of which is incorporated herein by reference). To determine if IGFBP-1 could prevent bGH-induced IGF-I action, 10-wk-old castrated Ames animals were treated with bGH with or without infusion of IGFBP-1 for 7 d. IGFBP-1 inhibited GH-induced fibromuscular and glandular development (Table 6).
# [9] = 4-wk-old intact wild-type male mice (FIG. 7, F and G)
molecule,measurement,setting,value
"C[C@]12CC[C@@H]3c4ccc(O)cc4CC[C@H]3[C@@H]1CC[C@@H]2O [E2, estradiol]","Weight of prostates, individual animals","[1]; 3 month old Wistar rats, E2 2 weeks, SS-14 15 μg/kg/hour by Alzet pump, Animal #1-#4",0.570 grams and 0.580 grams and 0.532 grams and 0.630 grams
same,MEAN WEIGHT of prostates,"[1]; 3 month old Wistar rats, E2 2 weeks, SS-14 15 μg/kg/hour, second set of experiments, p=0.019",0.578 grams
same,"Ratio between the prostate area occupied by glandular elements and the whole organ area in transverse sections, individual animals",[1]; E2-treated Wistar rats,0.8467 and 0.857 and 0.8758 and 0.8596
same,"Fibromuscular Layer Area of the urethra, MEAN AREA","[1]; E2-treated Wistar rats, αSMA immunostaining",2.938 mm2
same,"Fibromuscular Layer Area of the urethra, individual animals","[1]; E2-treated Wistar rats, αSMA immunostaining, Animal #1-#4",3.412 mm2 and 1.822 mm2 and 2.369 mm2 and 4.149 mm2
same,mean gland size,[1]; E2-treated Wistar rats,0.099 mm^2
same,"Ratio between the prostate area occupied by glandular elements and the whole organ area in transverse sections, AVERAGE","[1]; E2-treated Wistar rats, p=0.028",0.860
octreotide,circulating GH and IGF-I levels,[2]; in most of the patients treated,normalization
same,prostate volume,[2],reduction
"NCCCC[C@@H]1NC(=O)[C@@H](Cc2c[nH]c3ccccc23)NC(=O)[C@H](c2ccccc2)NC(=O)[C@@H]2C[C@@H](OC(=O)NCCN)CN2C(=O)[C@H](Cc2ccccc2)NC(=O)[C@H](Cc2ccc(OCc3ccccc3)cc2)NC1=O [SOM230, pasireotide] (cyclo(F[Hyp]([CO-Ethylenediamine])[Phg][dW]KY(Bn)))",mammary development in rats,mammary gland,prevent mammary development
same,IRS-1 phosphorylation in the mammary gland,mammary gland; rats,reduction
"C[C@H](N)C(=O)NCC(=O)N[C@H]1CSSC[C@@H](C(=O)O)NC(=O)[C@H](CO)NC(=O)[C@H]([C@@H](C)O)NC(=O)[C@H](Cc2ccccc2)NC(=O)[C@H]([C@@H](C)O)NC(=O)[C@H](CCCCN)NC(=O)[C@H](Cc2c[nH]c3ccccc23)NC(=O)[C@H](Cc2ccccc2)NC(=O)[C@H](Cc2ccccc2)NC(=O)[C@H](CC(N)=O)NC(=O)[C@H](CCCCN)NC1=O [SS14, Somatostatin-14]",mean gland size,[1]; E2-treated Wistar rats,0.078 mm^2
same,"prostate weight of E2-treated rats, first set of experiments","[1]; vs control E2-treated rats (vehicle only), p=0.024",significant reduction
same,Body weight,[3]; controls 26.9 ± 0.3,23.9 ± 0.3 gm
same,% Reduction of body weight,[3]; vs controls,11%
same,area of the Longitudinal muscle,"[4]; 28 day old male mice, controls 0.939",0.486 mm^2
same,total area of the Circular muscle,"[4]; 28 day old male mice, controls 1.322",0.438 mm^2
same,% Reduction of prostate weight,"[4]; intact 28 day old male mice, vs 28 day control",37%
B1,apoptosis in both fibromuscular and epithelial compartments (TUNEL),[5]; [9],increased
same,cell division in the epithelial compartment (Ki67),[5]; [9],inhibited
same,"fibromuscular development, epithelial development, lumen size, prostate area, and prostate weight","[5]; 4-wk-old intact wild-type male mice, 7 d, vs saline-treated control (FIG. 7, A-E)",inhibited
B2,restoring impaired prostate development,[6],no effect
same,number of TDTs (mean),"[7]; bGH 100 μg over 7 days by Alzet pump, controls 48, p=0.011",61
same,area of the gland,"[7]; bGH 100 μg over 7 days, controls 0.71, NS",1.12 cm^2
same,quaternary branching,"[7]; bGH 100 μg over 7 days, controls 35, p<0.01",44
same,branch points,"[7]; bGH 100 μg over 7 days, controls 37, p=0.011",46
same,IGF-I in homogenates of prostate glands (RIA),IGF-I,418-526 ng/5 prostates
same,Epithelium,[8],"160.5 ± 4.0^c,d μm^2 (×10^3)"
same,Fibromuscular,[8],"253.4 ± 18.6^a,b μm^2 (×10^3)"
same,Lumen,[8],"274.7 ± 11.9^c,d μm^2 (×10^3)"
same,Total,[8],"688.6 ± 32.4^a,b μm^2 (×10^3)"

# — patent US9579364B2, “Methods for treating benign prostatic hypertrophy (BPH)” (New York University, priority 2002, dated 2017)
